pIC50: −log10 of the molar value.
What was measured:
[1] = system: budding yeast S. cerevisiae; assay: Growth inhibition, broth microdilution MIC; type: cell-based
Procedure: The experiments were carried out using a broth microdilution protocol modified from the Clinical and Laboratory Standards Institute M-27A methods. WT S. cerevisiae and C. albicans were grown to mid-log phase in YPD medium. The cells were collected by centrifugation at 1500 g for 5 min and diluted with RPMI 1640 medium to the density of 1 × 10^4 CFU/mL. Then, the samples with various concentrations of compounds were dispensed at 0.2 mL/well in sterile 96-well microplates. The final concentrations of compounds ranged from 3.125 to 100 μg/mL with serial two-fold dilution. After incubation at 30 °C (S. cerevisiae) or 35 °C (C. albicans) for 24 hours, the minimal inhibitory concentration (MIC) was determined by measuring the optical density of the wells with cell cultures. The antifungal agent caspofungin was used as a positive control. All tests were performed in triplicate.

[2] = system: human embryonic kidney 293 cells; assay: Cytotoxicity assay (MTT); type: cell-based; settings: concentration as high as 100 μg/mL, 48 hours
Procedure: (§1) Human embryonic kidney 293 cells and Hela cells were seeded in triplicate in 96-well plates and grown to log-phase in DMEM medium with 10% FBS. Then, the medium was removed, and the cells were incubated with compounds at various concentrations ranging from 3.125 to 100 μg/mL in DMEM medium without FBS. After incubation for 48 hours, MTT reagent was added for further incubation for 4 hours. After we added 50 μL of DMSO, the absorbance was measured at 570 nm. The IC50 values were calculated based on a concentration-response curve.

[3] = system: Hela cells; assay: Cytotoxicity assay (MTT); type: cell-based, human; settings: concentration as high as 100 μg/mL, 48 hours
Procedure: as §1

[4] = system: budding yeast; assay: MIC of CFW in the presence of compounds, checkerboard assay; type: cell-based, S. cerevisiae
Procedure: Fresh cell cultures of WT S. cerevisiae and C. albicans ATCC10231 (OD600 = 0.8) were diluted to 10^4 CFU/mL in YPD medium. The in vitro synergistic and antagonistic effects of compounds were determined using checkerboard assay. MIC endpoints were defined as the lowest concentration of drugs, causing 80% decrease in viability compared to the drug-free control (MIC80). The calculation and interpretation of the fractional inhibitory concentration index (FICI) were carried out by referring to the document standards. FICI = (MIC of drug A in combination) / (MIC of drug A alone) + (MIC of drug B in combination) / (MIC of drug B alone). FIC ≤0.5 was considered as a synergistic effect, and >2 was considered as antagonism.

[5] = system: Chs1; assay: Chitin synthase activity assay (WGA-coated plate); type: biochemical, S. cerevisiae; settings: membrane protein from WT yeast
Procedure: (§2) The inhibitory effect of compounds IMB-D10 and IMB-F4, on the activity of chitin synthases 1, 2, and 3, was measured by the procedure, described previously. In brief, WT yeast cells were grown in YPD medium to OD600 1–2. The cells were sedimented at 1500 g for 15 min at 4 °C and washed once with water. Then, the cells were resuspended in cold 100 mM Tris-HCl (pH 7.5) buffer containing protease inhibitors, and broken by 10 cycles of vortexing with acid-washed glass beads (1 min each). The broken cells were centrifuged for 15 min at 1500g to eliminate cell wall and debris. One volume of supernatant was placed on 2 volumes of 10% w/w sucrose in 100 mM Tris-HCl pH 7.5 and centrifuged at 55,000 g for 2 hours. The pellet was resuspended in 50 mM Tris-HCl pH 7 and used as membrane protein of Chs3. For Chs1 and Chs2, the membrane protein was pretreated with 80 μg/mL trypsin for 30 min at 30 °C.
(§3) To assess the enzyme activity of Chs1, the assay mixture contained 15 μg membrane protein, 5 mM MgCl2, 32 mM Tris-maleate (pH6.5), 0.2% digitonin, 40 mM N-acetyl-glucosamine (GlcNAc), and 4 mM UDP-GlcNAc. For Chs2, the mixture contained 15 μg pretreated membrane protein, 1.6 mM CoCl2, 32 mM Tris-HCl (pH 8), 40 mM GlcNAc, and 4 mM UDP-GlcNAc. For Chs3, the mixture contained pretreated membrane protein 15 μg, 1.6 mM CoCl2, 5 mM NiCl2, 32 mM Tris-HCl (pH 8), 40 mM GlcNAc, and 4 mM UDP-GlcNAc. Different concentrations of IMB-D10 and IMB-F4 were added to the mixture, and the reaction without UDP-GlcNAc was used to measure background absorbance. The 96-well plate coated with 50 μg/mL wheat germ agglutinin (WGA) was washed three times with water, and the reaction mixture was added into the wells and incubated at 30 °C for 60 min. The reaction was stopped by 50 mM EDTA, and the plate was emptied and washed with a large volume of water, followed by the addition of 200 μL 0.5 μg/mL WGA-HRP and incubation for 5 min at room temperature. The plate was washed 5 times with running distilled water. Then, the Tetramethylbenzidine (TMB) reagent was added, and the optical density at 600 nm (OD600) was immediately detected with Multilabel Reader (Envision, PE, Pontyclun, UK). All reactions were performed in triplicate.

[6] = molecular target: T1, Chs3 (Saccharomyces cerevisiae, UniProt P29465); assay: Chitin synthase activity assay (WGA-coated plate); type: biochemical, S. cerevisiae
T1 construct: The pellet was resuspended in 50 mM Tris-HCl pH 7 and used as membrane protein of Chs3; endogenous in cells; host or cells: S. cerevisiae WT BY4741, crude membrane fraction
Procedure: as §2, §3

[7] = molecular target: Chs2 (Saccharomyces cerevisiae, UniProt P14180); assay: Chitin synthase activity assay (WGA-coated plate); type: biochemical, S. cerevisiae; settings: membrane protein from WT yeast
Procedure: as §2, §3

[8] = system: CHS1, CHS2, and CHS3 genes; assay: qRT-PCR gene expression; type: cell-based, S. cerevisiae; settings: 25 μg/mL, 16 hours
Procedure: WT yeast cells were grown to 10^5 CFU/mL in YPD medium and then treated with 25 μg/mL compounds or 0.25% DMSO for 16 hours at 30 °C. Then, the cells were collected by centrifugation at 1500 g for 5 min and washed twice with water. Total RNA was prepared using the Yeast RNA kit (OMEGA R6870-01, Norcross, GA, USA) and treated with DNase Ⅰ (TransGen GD201-01, Beijing, China) to remove genomic DNA. The resulting RNA was reverse-transcribed with the cDNA synthesis super-mix kit (TransGen AT311, Beijing, China). qRT-PCR was performed using Fast Universal SYBR Green Master (Rox, Roche, Mannheim, Gemany) and gene-specific primers (Table S1). The DNA level was measured using an Real-Time Quantitative Thermal Cycler (FTC-3000, Funglyn Biotech Inc, Toronto, Canada). The expression levels were correlated with the copy numbers used to amplify the gene to reach the threshold, then represented as the mean ± SEM relative to the cells treated with DMSO. One-way ANOVAs were performed to identify deviation from the mean.

T1 sequence (P29465 whole entry): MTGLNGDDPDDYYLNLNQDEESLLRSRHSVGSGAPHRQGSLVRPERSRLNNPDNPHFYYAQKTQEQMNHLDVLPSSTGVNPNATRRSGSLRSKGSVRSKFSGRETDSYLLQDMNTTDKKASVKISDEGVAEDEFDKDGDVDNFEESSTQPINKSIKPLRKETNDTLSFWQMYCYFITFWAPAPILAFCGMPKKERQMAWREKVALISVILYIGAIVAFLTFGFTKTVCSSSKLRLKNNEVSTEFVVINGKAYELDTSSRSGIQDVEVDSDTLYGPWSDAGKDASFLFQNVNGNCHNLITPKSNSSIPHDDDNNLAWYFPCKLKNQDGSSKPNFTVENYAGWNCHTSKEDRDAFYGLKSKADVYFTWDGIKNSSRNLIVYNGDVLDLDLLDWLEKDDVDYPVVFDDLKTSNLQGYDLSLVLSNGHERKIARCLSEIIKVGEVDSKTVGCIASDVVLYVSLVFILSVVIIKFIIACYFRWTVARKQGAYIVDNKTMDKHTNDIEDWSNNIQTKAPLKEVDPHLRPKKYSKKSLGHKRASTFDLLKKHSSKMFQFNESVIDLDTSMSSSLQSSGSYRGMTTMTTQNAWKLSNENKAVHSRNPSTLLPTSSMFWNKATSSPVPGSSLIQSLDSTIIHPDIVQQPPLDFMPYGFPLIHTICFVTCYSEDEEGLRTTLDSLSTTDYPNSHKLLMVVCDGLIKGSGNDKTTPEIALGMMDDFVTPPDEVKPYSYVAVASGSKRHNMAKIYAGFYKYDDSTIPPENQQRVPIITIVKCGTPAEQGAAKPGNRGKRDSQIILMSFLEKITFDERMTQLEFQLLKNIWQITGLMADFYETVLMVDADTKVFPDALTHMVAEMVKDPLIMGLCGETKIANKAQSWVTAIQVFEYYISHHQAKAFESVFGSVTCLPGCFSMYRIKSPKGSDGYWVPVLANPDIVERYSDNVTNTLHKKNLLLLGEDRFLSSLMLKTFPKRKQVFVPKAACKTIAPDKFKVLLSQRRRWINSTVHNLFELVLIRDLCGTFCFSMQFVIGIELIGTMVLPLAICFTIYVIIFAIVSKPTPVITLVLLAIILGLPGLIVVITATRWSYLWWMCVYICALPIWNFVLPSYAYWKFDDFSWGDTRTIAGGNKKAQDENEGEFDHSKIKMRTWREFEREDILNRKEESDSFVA
Sequence of Chs2 (P14180 whole entry): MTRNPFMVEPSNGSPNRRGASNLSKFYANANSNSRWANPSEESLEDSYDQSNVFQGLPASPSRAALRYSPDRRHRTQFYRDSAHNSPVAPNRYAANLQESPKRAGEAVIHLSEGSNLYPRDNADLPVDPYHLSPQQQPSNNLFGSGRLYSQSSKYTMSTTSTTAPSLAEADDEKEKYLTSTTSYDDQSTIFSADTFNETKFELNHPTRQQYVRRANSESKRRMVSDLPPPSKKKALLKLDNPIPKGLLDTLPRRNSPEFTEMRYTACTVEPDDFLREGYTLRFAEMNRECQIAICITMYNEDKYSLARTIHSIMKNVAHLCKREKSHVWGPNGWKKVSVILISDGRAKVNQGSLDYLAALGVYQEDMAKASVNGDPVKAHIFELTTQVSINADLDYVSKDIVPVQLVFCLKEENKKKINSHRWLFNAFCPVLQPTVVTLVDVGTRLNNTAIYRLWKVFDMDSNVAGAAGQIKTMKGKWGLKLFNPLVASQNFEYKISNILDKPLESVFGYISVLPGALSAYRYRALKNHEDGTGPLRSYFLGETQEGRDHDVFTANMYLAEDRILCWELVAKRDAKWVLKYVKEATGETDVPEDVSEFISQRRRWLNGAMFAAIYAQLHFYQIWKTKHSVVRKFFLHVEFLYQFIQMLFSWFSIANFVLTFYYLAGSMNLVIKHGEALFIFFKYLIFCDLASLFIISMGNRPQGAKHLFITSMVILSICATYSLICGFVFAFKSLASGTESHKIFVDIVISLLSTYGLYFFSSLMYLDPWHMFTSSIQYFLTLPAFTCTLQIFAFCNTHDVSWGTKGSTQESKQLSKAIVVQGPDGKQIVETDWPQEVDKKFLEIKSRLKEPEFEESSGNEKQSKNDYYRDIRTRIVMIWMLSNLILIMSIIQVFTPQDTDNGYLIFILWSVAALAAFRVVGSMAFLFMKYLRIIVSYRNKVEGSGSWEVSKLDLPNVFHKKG

COc1cc(OC)cc(C(=O)N(CCn2ccnc2)c2nc3ccc(OC)cc3s2)c1 [IMB-F4, N-(2-(1H-imidazol-1-yl)ethyl)-3,5-dimethoxy-N-(6-methoxybenzo[d]thiazol-2-yl)benzamide]
cell growth inhibition ([1]; S. cerevisiae, at 100 μg/mL): did not inhibit cell growth | growth inhibition (toxicity) [2]: No growth inhibition | growth inhibition (toxicity) [3]: No growth inhibition | resistance to CFW ([4]; yeast cells treated with 25 and 50 μg/mL IMB-F4): increased resistance to CFW | inhibition of Chs1 activity [5]: only inhibited the activity of Chs2 and Chs3 | pIC50 [6]: 5.17

N-(2-(diethylamino) ethyl)-N-(7-hydroxy-4-methoxybenzo[d]thiazol -2-yl)-2-oxo-2H-chromene-3-carboxamide [IMB-D10]
MIC ([1]; budding yeast S. cerevisiae): 50 µg/mL | increase of the MIC of CFW ([4]; budding yeast, presence of 12.5 μg/mL IMB-D10): eight-fold increase | IC50 Chs1 [5]: 17.46 ± 3.39 µg/mL | IC50 Chs2 [7]: 3.516 ± 1.35 µg/mL | IC50 Chs3 ([6]; membrane protein from WT yeast): 13.08 ± 2.08 µg/mL | expression levels of CHS1, CHS2, and CHS3 genes [8]: did not decrease significantly
